Data published in publication PMC5400251, “Effect of quinoline based 1,2,3-triazole and its structural analogues on growth and virulence attributes of Candida albicans” (PLoS ONE, 2017).
Values after ≈ are worked out from the molar mass of the structure shown. Read-outs that look alike come from different tables or passages of the source.

Key:
[1] = test system: C. albicans D15.9 (FLC-resistant clinical isolate); experiment: Broth dilution IC50 / MIC determination; type: cell-based; conditions: Candida albicans; for IC50: 24 h, read-out: Anti-Candida Activity (IC50± S.D.) C. albicans D15.9
Method: Broth dilution technique was employed to determine the IC50 values of all the synthesized 1,2,3 triazole derivatives (3a-c) against C. albicans ATCC 90028, C. glabrata ATCC 90030, C. tropicalis ATCC 750 and four clinical isolates of C. albicans namely D27, D31, D39 (FLC-sensitive) and D15.9 (FLC-resistant). The strains were maintained on yeast extract:peptone:dextrose ([…]) nutrient agar (2.5%) slants at 4°C. The test compounds were dissolved in DMSO with less than 4% concentration of it in the final test volume. Different concentrations (1000… 7.8 μg/mL) of test compounds in Sabouraud dextrose (SD) broth medium were dispensed into the wells, then inoculated with the test organism with approx. 2.5 × 10^3 cells/mL and incubated at 37°C for 24 h. After incubation period, the optical density was measured at 600 nm by using Thermo Scientific Multiskan Go plate reader. […] All the experiments were done in triplicate at separate times.

[2] = test system: C. albicans ATCC 90028 (Standard); experiment: Disk diffusion assay; type: cell-based; conditions: 48 h
Method: (§1) Disk diffusion assay was performed using C. albicans ATCC 90028 (standard), the two clinical isolates, C. albicans D27 (FLC-susceptible), and C. albicans D15.9 (FLC-resistant) for the lead inhibitors 3a and 3b. The C. albicans cells were inoculated into liquid SD medium and grown over night at 37°C. The cells were then centrifuged at 3000 rpm for 5 min, washed three times with PBS and then suspended in PBS again. Approximately, 10^5 cells/mL were inoculated into molten SD agar medium at 42°C and poured into 100-mm-diameter petriplates. Sterilized 4 mm disks of Whatman paper were placed on solid agar and 1, 2, and 4 μL of 3a and 2, 4, and 8 μL of 3b from the stock solution of 10 mg/mL were spotted on the disk. […] The diameter of zone of inhibition (ZOI) was recorded in millimetres after 48 h and was compared with that of control. This experiment was repeated thrice and values were shown in terms of mean ±standard error of mean.

[3] = test system: C. albicans D15.9 (FLC-resistant); experiment: Disk diffusion assay; type: cell-based; conditions: 48 h
Method: as §1

[4] = test system: C. albicans D27 (FLC-susceptible); experiment: Disk diffusion assay; type: cell-based; conditions: 48 h
Method: as §1

C. albicans = experiment: Disk diffusion assay, appearance of zones (strains not distinguished); type: cell-based
Method: as §1

proteinase secretion [5] = experiment: Proteinase assay (BSA agar, Pz value); type: cell-based, C. albicans ATCC 90028; conditions: at MIC, 1 h exposure
Method: (§2) Following incubation, 1.5 mL of the yeast culture was taken into micro centrifuge tubes and centrifuged at 3000 rpm, for 5 min. The pellet obtained was washed by phosphate buffer saline (PBS) twice to remove the residual medium. […] Volumes of 1μL were placed at equidistant points on proteinase agar medium (0.1% yeast nitrogen base w/o amino acids; 0.145% ammonium sulfate; 2% glucose with 0.2% (w/v) BSA fraction V mixed into agar at ∼40°C) and incubated at 37°C for 3 days. The experiment was performed in duplicate. Secreted proteinase enzyme will degrade BSA and form zone of clearance around the yeast colonies. An index (Pz value) was used to represent the extent of proteinase activity by different strains of C. albicans. A Pz value of 1.0 depicts no enzyme activity. It was calculated as follows: Pzvalue=diameterofcolony/diameterofcolony+diameterofzoneofdegradation

proteinase secretion [6] = experiment: Proteinase assay (BSA agar, Pz value); type: cell-based, C. albicans D15.9 (FLC-resistant); conditions: for Decrease of proteinase secretion: at MIC, 1 h exposure
Method: as §2

phospholipase secretion = experiment: Phospholipase assay (egg yolk agar, Pz value); type: cell-based, C. albicans ATCC 90028
Method: Phospholipase activity was performed using the method of Price et al. (1982) with minor modifications. The cells were incubated at 37°C for 18 h and then centrifuged at 3000 rpm for 5 min. The pellet obtained was washed with PBS twice to remove the residual culture medium. […] Volumes of 1 μL were placed at equidistant points on phospholipase agar media plates (1% peptone; 3% glucose; 5.73% NaCl; 0.055% CaCl2 with 10% (v/v) egg yolk emulsion) and incubated at 37°C for 4 days. The secretion of phospholipases was determined by the formation of opaque zones due to precipitation around the yeast colonies. The assay was conducted in duplicate. Pz values were calculated as follows: Pzvalue=diameterofcolony/diameterofcolony+diameterofzoneofprecipitaion

[7] = biological target: T1, plasma membrane H+ ATPase (Candida albicans, UniProt P28877); experiment: cell-based; parameters: species or system C. albicans D15.9 (FLC-resistant); conditions: for inhibition at 100 µg/mL: read-out: Inhibition of H+ extrusion
T1 construct: endogenous in cells; host or cells: C. albicans ATCC 90028; clinical isolates C. albicans D27 (FLC-susceptible) and D15.9 (FLC-resistant); mid-log phase whole cells
T1 sequence (P28877 whole entry): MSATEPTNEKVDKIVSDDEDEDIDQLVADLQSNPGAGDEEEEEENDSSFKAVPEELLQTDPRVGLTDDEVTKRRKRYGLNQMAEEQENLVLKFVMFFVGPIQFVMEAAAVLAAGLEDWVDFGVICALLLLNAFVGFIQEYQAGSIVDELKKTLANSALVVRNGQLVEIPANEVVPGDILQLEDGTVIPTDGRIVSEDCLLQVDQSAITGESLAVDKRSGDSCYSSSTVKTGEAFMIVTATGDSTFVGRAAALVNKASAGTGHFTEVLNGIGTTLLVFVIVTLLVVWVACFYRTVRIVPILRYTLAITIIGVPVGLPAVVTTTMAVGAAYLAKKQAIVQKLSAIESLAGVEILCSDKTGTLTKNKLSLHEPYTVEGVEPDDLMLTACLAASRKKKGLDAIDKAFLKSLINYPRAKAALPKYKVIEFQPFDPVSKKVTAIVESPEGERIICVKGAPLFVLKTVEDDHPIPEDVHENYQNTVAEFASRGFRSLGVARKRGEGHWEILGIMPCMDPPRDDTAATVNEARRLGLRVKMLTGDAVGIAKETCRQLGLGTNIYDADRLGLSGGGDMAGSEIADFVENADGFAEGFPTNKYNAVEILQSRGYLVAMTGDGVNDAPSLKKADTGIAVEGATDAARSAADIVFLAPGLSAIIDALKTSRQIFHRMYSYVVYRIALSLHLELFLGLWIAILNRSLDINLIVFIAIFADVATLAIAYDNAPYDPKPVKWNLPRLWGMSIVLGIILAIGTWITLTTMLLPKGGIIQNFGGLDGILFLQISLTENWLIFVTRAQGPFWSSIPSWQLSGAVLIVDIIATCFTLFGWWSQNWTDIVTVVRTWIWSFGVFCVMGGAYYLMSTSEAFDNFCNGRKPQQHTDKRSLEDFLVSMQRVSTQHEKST
Method: The proton pumping activity of C. albicans was determined by monitoring acidification of external medium by measuring pH as describe earlier. In brief, the mid-log phase cells were harvested from SD medium by centrifugation at 3000 rpm for 15 min which is followed by three washings with phosphate buffer saline (PBS). A solution containing 0.1 M KCl and 0.1 mM CaCl2 in distilled water was prepared. Compounds 3a and 3b at the concentrations of 50 and 100 μg/mL were separately added in this solution. […] Initial pH was adjusted to 7.0 using 0.01 M HCl/NaOH. Approximately 0.2 g of cells were suspended in each set of solution. Suspension was kept in a double-jacketed glass container with constant stirring. Again, the pH of suspension was maintained as 7.0 for 1 min by using 0.01 N NaOH. The rate of H^+ extrusion was then monitored and calculated from the volume of 0.01 N NaOH consumed per min per mg weight of cells. Glucose has been reported as the stimulator of proton extrusion pump. Therefore above experiment was also repeated in the presence of 5 mM of glucose.

[8] = Candida albicans, ATCC90028, 20 μg per disk
[9] = Candida albicans, ATCC90028, 40 μg per disk
[10] = Candida albicans, 40 μg per disk
[11] = 50 μg/mL in presence of glucose (5 mM)
[12] = 100 μg/mL in presence of glucose (5 mM)

c1ccc(Cn2cc(COc3cccc4cccnc34)nn2)cc1 [Compound 3a]
MIC [1]: 25 µg/mL (≈ 79 µM) | IC50 [1]: 2.3 ± 0.05 µg/mL (≈ 7.27 µM) | Zone of Inhibition ([2]; 20 μg per disk): 35± 0.97 mm | Zone of Inhibition ([2]; 40 μg per disk): 39± 1.12 mm | zone of inhibition at 10 µg/disc ([2]; Candida albicans, ATCC90028, 10 μg per disk): 28 ± 0.72 mm | zone of inhibition at 20 µg/disc [2, 8]: 35 mm | zone of inhibition at 40 µg/disc [2, 9]: 39 mm | Zone of Inhibition ([3]; 20 μg per disk): 26± 073 mm | Zone of Inhibition ([3]; 40 μg per disk): 32± 1.28 mm | zone of inhibition at 10 µg/disc ([3]; Candida albicans): 20 ± 0.21 mm | zone of inhibition at 20 µg/disc ([3]; Candida albicans): 26 mm | zone of inhibition at 40 µg/disc ([3]; Candida albicans): 32 mm | Zone of Inhibition ([4]; 40 μg per disk): 26± 0.92 mm | zone of inhibition at 20 µg/disc ([4]; Candida albicans): 19 ± 0.95 mm | zone of inhibition at 10 µg/disc ([4]; Candida albicans, 10 μg per disk): 14 ± 0.7 mm | zone of inhibition at 40 µg/disc [4, 10]: 26 mm | Appearance of zone around disks (clear = fungicidal nature, turbid = fungistatic nature) (C. albicans): clear | Decrease of proteinase secretion (proteinase secretion [5]): 21% | Decrease of proteinase secretion (fold) (proteinase secretion [6]; Fig 4 legend): two fold | Decrease of proteinase secretion (proteinase secretion [6]): 45% | Decrease of phospholipase secretion (phospholipase secretion; at MIC, 1 h exposure): 43% | Decrease of phospholipase secretion (phospholipase secretion; at MIC/4, 1 h exposure): 40% | Range of relative H+ efflux rate [7, 11]: 28.30 ± 1.4 ×10^−6 mol min^−1 mg cells^−1 | Range of relative H+ efflux rate ([7]; 50 μg/mL, no glucose): 21.60 ± 1.0 ×10^−6 mol min^−1 mg cells^−1 | Range of relative H+ efflux rate [7, 12]: 20.00 ± 1.0 ×10^−6 mol min^−1 mg cells^−1 | Range of relative H+ efflux rate ([7]; 100 μg/mL, no glucose): 16.70 ± 0.8 ×10^−6 mol min^−1 mg cells^−1 | inhibition at 100 µg/mL [7]: 40%

Clc1ccc(OCc2cn(Cc3ccccc3)nn2)c2ncccc12 [Compound 3b, 8-((1-Benzyl-1H-1,2,3-triazol-4-yl)methoxy)-5-chloroquinoline]
MIC [1]: 250 µg/mL (≈ 713 µM) | IC50 [1]: 32.8 ± 1.25 µg/mL (≈ 93.5 µM) | Zone of Inhibition ([2]; 80 μg per disk): 29± 0.93 mm | zone of inhibition at 20 µg/disc [2, 8]: 18 ± 0.72 mm | zone of inhibition at 40 µg/disc [2, 9]: 25 ± 0.9 mm | zone of inhibition at 80 µg/disc ([2]; Candida albicans, ATCC90028, 80 μg per disk): 29 mm | Zone of Inhibition ([3]; 80 μg per disk): 22± 0.79 mm | zone of inhibition at 20 µg/disc ([3]; Candida albicans): 15 ± 0.21 mm | zone of inhibition at 40 µg/disc ([3]; Candida albicans): 18 ± 0.09 mm | zone of inhibition at 80 µg/disc ([3]; Candida albicans): 22 mm | Zone of Inhibition ([4]; 80 μg per disk): 26± 1.17 mm | zone of inhibition at 20 µg/disc ([4]; Candida albicans, 20 μg per disk, read-out: Zone of Inhibition): 16 ± 0.54 mm | zone of inhibition at 40 µg/disc [4, 10]: 18 ± 0.87 mm | zone of inhibition at 80 µg/disc ([4]; Candida albicans, 80 μg per disk): 26 mm | Appearance of zone around disks (clear = fungicidal nature, turbid = fungistatic nature) (C. albicans): turbid | Decrease of proteinase secretion (proteinase secretion [5]): 14% | Decrease of proteinase secretion (proteinase secretion [6]): 23.5% | Phospholipase activity after treatment (phospholipase secretion; Fig 4 legend): No phospholipase activity | Decrease of phospholipase secretion (phospholipase secretion; at MIC, 1 h exposure): 68% | Decrease of phospholipase secretion (phospholipase secretion; at MIC/4, 1 h exposure): 32% | Range of relative H+ efflux rate [7, 11]: 25.00 ± 1.2 ×10^−6 mol min^−1 mg cells^−1 | Range of relative H+ efflux rate ([7]; 50 μg/mL, no glucose): 18.30 ± 0.9 ×10^−6 mol min^−1 mg cells^−1 | Range of relative H+ efflux rate [7, 12]: 21.00 ± 1.0 ×10^−6 mol min^−1 mg cells^−1 | Range of relative H+ efflux rate ([7]; 100 μg/mL, no glucose): 16.00 ± 0.8 ×10^−6 mol min^−1 mg cells^−1 | inhibition at 100 µg/mL [7]: 42%
